From paper PMC11524579, “PRR adjuvants restrain high stability peptides presentation on APCs” (eLife, 2024)

How the values were obtained:
CD4+ T-cells [1] = assay: IFN-γ ICS screen of UreB overlapping 18mer peptides on T-cells from adjuvant-vaccinated mice; assay type: cell-based, BALB/c mice; details: spleens day 10, expanded in vitro, 5 μM peptide 5 hr, ICS flow cytometry; for IFN-γ response of CD4+ T-cells to UreB 18mer peptides, CpG group: T-cells from mice vaccinated with UreB + CpG; for IFN-γ response of CD4+ T-cells to UreB 18mer peptides, CpG group / IFN-γ response of CD4+ T-cells to UreB 18mer peptides, MPLA group / IFN-γ response of CD4+ T-cells to UreB 18mer peptides, MDP group: representative of three independent experiments; for IFN-γ response of CD4+ T-cells to UreB 18mer peptides, MPLA group: T-cells from mice vaccinated with UreB + MPLA; for IFN-γ response of CD4+ T-cells to UreB 18mer peptides, MDP group: T-cells from mice vaccinated with UreB + MDP
Method: (§1) Six- to eight-week-old SPF female BALB/c mice were immunized subcutaneously with 100 μg recombinant H pylori UreB (rUreB, purity >95%) emulsified in adjuvants CpG (20 μg/ mouse), MDP (30 μg/ mouse), and MPLA (10 μg/ mouse). Mice immunized with the same antigen without adjuvants were used as controls. Ten days later, the mice were euthanized with Carbon Dioxide (CO₂), and their spleens were harvested. Antigen-specific T-cells were expanded in vitro as described previously ([Li et al., 2015]). Briefly, the lymphocytes from spleens were isolated using a Ficoll–Hypaque (Dakewe, Shanghai, China) gradient, pulsed with 0.5 μM rUreB protein in the presence of 5 U/mL rmIL-2 (PeproTech, NJ, USA), and in vitro cultured in ‘RF-10’ medium consisting of RPMI 1640 (Gibco, CA, USA) supplemented with 10% fetal calf serum (Gibco), 1% L-glutamine, 1x 2-mercaptoethanol (Gibco), and 100 U/mL penicillin/ streptomycin. On day 5, the live cells were collected using a Ficoll–Hypaque gradient and cultured in a complete medium containing 20 U/mL rmIL-2. Half the medium was replaced when required.
Bulk-cultured T-cells were stimulated with 5 μM peptides for 5 hr in the presence of brefeldin A (BioLegend). The cells were collected and stained with specific antibodies against surface markers. Intracellular cytokine staining was performed after fixation. Cells were acquired using an LSRFortessa Flow Cytometer (BD Biosciences) or a Navios Flow Cytometer (Beckman Coulter, FL, USA). The data were analyzed using FlowJo software (Tree Star, CA, USA).

A20 cells [2] = assay: Whole-proteome LC-MS/MS of adjuvant-treated APCs, bacterial protein abundance; assay type: cell-based, Mus musculus; details: A20 cells 12 hr post-adjuvant stimulation with H. pylori antigens
Method: (§2) A20 cells were cultured in T75 cell culture flasks (Corning, NY, USA). The expanded cells were pulsed with H. pylori lysates in combination with adjuvants MPLA, MDP, or CpG for 12 hr, collected, washed twice with sterile PBS, and divided into two fractions. One fraction, approximately 10^7 cells, was used for whole-proteome analysis. The remaining 10^8 cells were lysed in cold lysis buffer (1.0% w/v CHAPS, Protease Inhibitor tablet, and PMSF) for MHC-II complex immunoprecipitation. The cell lysates were centrifuged at 18,000×g for 20 min. The supernatant (containing the MHC–peptide complexes) was transferred into a new 1.5 mL microcentrifuge tube (Corning) containing a mixture of Sepharose CNBr-activated beads (Cytivia, Utah, USA) and 2 mg Anti-Mouse H2-IA^d/IE^d (M5/114) antibody (BioXcell, NH, USA). The immune complexes were captured on the beads by incubating on a rotor at 4℃ for 18 hr. Sequentially, the immune complexes were transferred to a polypropylene column (Bio-Rad Laboratories, Hercules, CA, USA) and washed with 10 mL buffer A (150 mM NaCl, 20 mM Tris, pH 8.0), 10 mL buffer B (400 mM NaCl, 20 mM Tris, pH 8.0), 10 mL buffer A, and 10 mL buffer C (Tris 20 mM, pH 8.0). The MHC-II–peptide complexes were eluted with 300 µL 10% glacial acetic acid (Macklin, Shanghai, China) three times. The eluate was stored at −80℃ until mass spectrometry analysis was performed.
Protein aliquots were mixed with 200 μL 8 M urea in Nanosep Centrifugal Devices (PALL) and centrifuged at 12,000×g at 20℃ for 20 min. All the centrifugation steps were performed under the same conditions, allowing for maximal concentration. Then, 200 μL 8 M urea solution with 10 mM DTT was added, and the reduction reaction was performed for 2 hr at 37°C. The solution was removed by centrifugation and 200 μL 8 M urea solution with 50 mM iodoacetamide (IAA) was added. The samples were incubated in the dark for 15 min at room temperature. The ultra-fraction tube was washed with 200 μL 8 M urea three times and 200 μL 25 mM ammonium bicarbonate three times by centrifugation at 12,000×g for 20 min at room temperature. […]

A20 cells [3] = assay: MHC-II immunopeptidome (LC-MS/MS) of adjuvant-treated APCs; assay type: cell-based, Mus musculus
Method: as §2, with “performed. […]” for “performed.”

MHC-II H2-IA allele = assay: MHC-II competition-binding assay in vitro; details: competition with 0.1 μM biotin-labeled control peptide, 50 nM purified MHC-II, 37 °C 24 hr, europium fluorescence; eight concentrations, three independent experiments
splenocytes = assay: IFN-γ ELISpot of splenocytes from peptide-pool immunized mice; assay type: in vivo; details: five BALB/c mice immunized with pool of 10 peptides (50 μg each) in CFA; for IFN-γ ELISpot response, day 10 (effective phase): threshold 3x median of OVA peptide
Method: Six- to eight-week-old SPF female BALB/c mice were immunized subcutaneously with a pool of synthetic peptides (50 μg for each peptide) emulsified in Complete Freunds Adjuvant (Sigma-Aldrich). At 10 and 28 days post-vaccination, the mice were euthanized, and the spleens were removed for ELISpot assays.
Splenocytes (500,000 cells/well) were treated with red blood cell lysis buffer and stimulated with 5 μM peptides in triplicate in ELISpot plates (Dakewe Biotech, Shenzhen, China) for 18 hr. IFN-γ secretion was detected using capture and detection antibodies and imaged using an ELISpot & FluoroSpot Reader (Mabtech, Stockholm, Sweden). OVA peptide323–339 (ISQAVHAAHAEINEAGR) and non-stimulated wells were used as negative controls. PMA (BioGems, NJ, USA) was used as a positive control.

CD4+ T-cells [4] = assay: IFN-γ ICS of in vitro expanded peptide-specific CD4+ T-cells, peptide pool and titrated peptides; assay type: cell-based, BALB/c mice; details: titrated peptides, response at 50 μM taken as 100%, n=3, ICS flow cytometry; compared with ureA #2 and ureA #3
Method: as §1
Bulk-cultured T-cells were stimulated with 5 μM peptides for 5 hr in the presence of brefeldin A (BioLegend). The cells were collected and stained with specific antibodies against surface markers. […] The data were analyzed using FlowJo software (Tree Star, CA, USA). […]

Compound: U403–426: UreB region covered by overlapping 18mer peptides (KRYLSKYTINPAIAHGISEYVGSV; UniProt P69996 403-426, looked up, fragment)
- IFN-γ response of CD4+ T-cells to UreB 18mer peptides, CpG group (CD4+ T-cells [1]): dominant response

Compound: U481–U504: UreB dominant region covered by overlapping 18mer peptides (HHGKAKYDANITFVSQAAYDKGIK; UniProt P69996 481-504, looked up, fragment)
- IFN-γ response of CD4+ T-cells to UreB 18mer peptides, no-adjuvant group (CD4+ T-cells [1]; T-cells from mice vaccinated with UreB without adjuvant): dominant region

Compound: CC(=O)N[C@@H]1[C@@H](O[C@H](C)C(=O)N[C@@H](C)C(=O)N[C@H](CCC(=O)O)C(N)=O)[C@H](O)[C@@H](CO)O[C@H]1O [MDP]
- % H. pylori: percentage of bacterial protein abundances in the total whole proteome (A20 cells [2]; sample (replicate) 1): 0.95%
- % H. pylori: percentage of bacterial protein abundances in the total whole proteome (A20 cells [2]; sample (replicate) 2): 1.04%
- % H. pylori: percentage of bacterial protein abundances in the total whole proteome (A20 cells [2]; sample (replicate) 3): 1.09%
- Number of MHC peptides identified (A20 cells [3]; A20 cells treated with adjuvant + H. pylori antigens 12 hr, 10^8 cells, MHC-II IP, LC-MS/MS, mean of n=3 biological replicates): 3257
- Effect of adjuvant on peptide repertoires presented by APCs (A20 cells [3]; A20 cells, H. pylori antigens + adjuvant 12 hr, immunopeptidome): not

Compound: KMLELANQIKTNLSAIPQ [hopZ #53]
- Binding stability for MHC-II (MHC-II H2-IA allele): highly stable
- IFN-γ ELISpot response, day 10 (effective phase) (splenocytes): positive responses

Compound: U313–330: UreB overlapping 18mer peptide (EHMDMLMVCHHLDKSIKE; UniProt P69996 313-330, looked up, fragment)
- IFN-γ response of CD4+ T-cells to UreB 18mer peptides, CpG group (CD4+ T-cells [1]): dominant response
- IFN-γ response of CD4+ T-cells to UreB 18mer peptides, MPLA group (CD4+ T-cells [1]): primarily recognized

Compound: AFIDAEHALDVHYAKR [recA #23]
- Binding stability for MHC-II (MHC-II H2-IA allele): low-stability
- IFN-γ response of expanded CD4+ T-cells to titrated peptide (CD4+ T-cells [4]): more robust CD4^+ T-cell responses at lower peptide concentrations
- IFN-γ ELISpot response, day 28 (memory phase) (splenocytes): not weaker than that of the other peptides
- IFN-γ ELISpot response, day 10 (effective phase) (splenocytes): positive responses

Compound: YVEAVALISAHIMEEAR [ureA #3]
- Binding stability for MHC-II (MHC-II H2-IA allele): highly stable
- IFN-γ ELISpot response, day 10 (effective phase) (splenocytes): positive responses

Compound: U409–426: UreB overlapping 18mer peptide (YTINPAIAHGISEYVGSV; UniProt P69996 409-426, looked up, fragment)
- IFN-γ response of CD4+ T-cells to UreB 18mer peptides, MDP group (CD4+ T-cells [1]): dominant response

Compound: ASMIHEVGIEAMFPDGTK [ureA #2]
- Binding stability for MHC-II (MHC-II H2-IA allele): highly stable
- IFN-γ ELISpot response, day 10 (effective phase) (splenocytes): positive responses

Compound: U505–522: UreB overlapping 18mer peptide (EELGLERQVLPVKNCRNI; UniProt P69996 505-522, looked up, fragment)
- IFN-γ response of CD4+ T-cells to UreB 18mer peptides, MPLA group (CD4+ T-cells [1]): primarily recognized

Compound: U481–498: UreB overlapping 18mer peptide (HHGKAKYDANITFVSQAA; UniProt P69996 481-498, looked up, fragment)
- IFN-γ response of CD4+ T-cells to UreB 18mer peptides, MDP group (CD4+ T-cells [1]): dominant response
